The term IC50 denotes the concentration needed to halve the response being measured.

We go through 2 molecules from US20060106085A1, “Methods and compositions using PDE4 modulators for treatment and management of central nervous system injury” (priority 2004, published 2006).

The test system of one data set is spinal cord contusion. The conditions noted are these: cited from earlier work.
Data set [1] concerns TNF-α production from human PBMC. Description: IL-1β-induced TNF-α production from human PBMC. Format: cell-based. The conditions noted are these: 50 ng/ml recombinant human IL-1β, 18 hours. On the procedure:
During the course of inflammatory diseases, TNF-α production is often stimulated by the cytokine 1L-1β rather than by bacterially derived LPS. 3-(3,4-Dimethoxy-phenyl)-3-(1-oxo-1,3-dihydro-isoindol-2-yl)-propionamide was tested for the ability to inhibit IL-1β-induced TNF-α production from human PBMC as described above for LPS-induced TNF-α production, except that the PBMC are isolated from source leukocyte units (Sera-Tec Biologicals, North Brunswick, N.J., USA) by centrifugation on Ficoll-Paque Plus (Amersham Pharmacia, Piscataway, N.J., USA), plated in 96-well tissue culture plates at 3×10^5 cells/well in RPMI-1640 medium (BioWhittaker, Walkersville, Md., USA) containing 10% heat-inactivated fetal bovine serum (Hyclone), 2 mM L-glutamine, 100 U/ml penicillin, and […] (complete medium), pretreated with compounds at 10, 2, 0.4, 0.08, 0.016, 0.0032, 0.00064, and 0 μM in duplicate at a final DMSO concentration of 0.1% at 37° C. in a humidified incubator at 5% CO2 for 1 hour, then stimulated with 50 ng/ml recombinant human IL-1β (Endogen) for 18 hours.

A further data set concerns PDE4. The experiment in a line: Inhibition of PDE4 enzyme purified from U937 human monocytic cells. It is filed as biochemical. The conditions noted are these: 1 μM cAMP, 30 min at 30° C. On the procedure: PDE4 enzyme was purified from U937 human monocytic cells by gel filtration chromatography as previously described (Muller et al. 1998, Bioorg. & Med Chem Lett 8:2669-2674). Phosphodiesterase reactions were carried out in 50 mM Tris HCl pH 7.5, 5 mM MgCl2, 1 μM cAMP, 10 nM [^311)-cAMP for 30 min at 30° C., terminated by boiling, treated with 1 mg/ml snake venom, and separated using AG-1×S ion exchange resin (BioRad) as described (Muller et al. 1998, Bioorg. & Med Chem Lett 8:2669-2674). Reactions consumed less than 15% of available substrate.

In data set [2] the test system is TNF-α production from human PBMC. Description: LPS-induced TNF-α production from human PBMC. Format: cell-based. The conditions noted are these: LPS 100 ng/ml, compound added 1 hour before LPS, 18-20 hours, ELISA. Here is the method:
Inhibition of TNF-α production following LPS-stimulation of human PBMC and human whole blood by 3-(3,4-dimethoxy-phenyl)-3-(1-oxo-1,3-dihydro-isoindol-2-yl)-propionamide is investigated in vitro (Muller et al., Bioorg. Med. Chem. Lett. 9:1625-1630, 1999). The IC50's of 3-(3,4-dimethoxy-phenyl)-3-(1-oxo-1,3-dihydro-isoindol-2-yl)-propionamide for inhibiting production of TNF-α following LPS-stimulation of PBMC and human whole blood is measured.
For example, 3-(3,4-dimethoxy-phenyl)-3-(1-oxo-1,3-dihydro-isoindol-2-yl)-propionamide was tested for the ability to inhibit LPS-induced TNF-α production from human PBMC as previously described (Muller et al. 1996, J. Med. Chem. 39:3238). PBMC from normal donors were obtained by Ficoll Hypaque (Pharmacia, Piscataway, N.J., USA) density centrifugation. Cells were cultured in RPMI (Life Technologies, Grand Island, N.Y., USA) supplemented with 10% AB±human serum (Gemini Bio-products, Woodland, Calif., USA), 2 mM L-glutamine, 100 U/ml penicillin, and 100 μg/ml streptomycin (Life Technologies).
PBMC (2×10^5 cells) were plated in 96-well flat-bottom Costar tissue culture plates (Corning, N.Y., USA) in triplicate. Cells were stimulated with LPS (Sigma, St. Louis, Mo., USA) at 100 ng/ml in the absence or presence of compounds. […]
(ELISA stands for enzyme-linked immunosorbent assay.)

Data set [3] is described as follows: Cardiovascular and respiratory function in anesthetized dogs. Format: in vivo. The conditions noted are these: anesthetized Beagle dogs, 400, 800, and 1,200 mg/kg/day ascending doses, infusion through the jugular vein, compared to vehicle control. On the procedure: The effects of 3-(3,4-dimethoxy-phenyl)-3-(1-oxo-1,3-dihydro-isoindol-2-yl)-propionamide on cardiovascular and respiratory function are investigated in anesthetized dogs. Two groups of Beagle dogs (2/sex/group) are used. One group receives three doses of vehicle only and the other receives three ascending doses of 3-(3,4-dimethoxy-phenyl)-3-(1-oxo-1,3-dihydro-isoindol-2-yl)-propionamide (400, 800, and 1,200 mg/kg/day). In all cases, doses of 3-(3,4-dimethoxy-phenyl)-3-(1-oxo-1,3-dihydro-isoindol-2-yl)-propionamide or vehicle are successively administered via infusion through the jugular vein separated by intervals of at least 30 minutes.

As to `COc1ccc(C2CNC(=O)C2)cc1OC1CCCC1` (stereo not shown) [rolipram], in the data set on spinal cord contusion (combination of rolipram with db-cAMP), the locomotion entry was “improved locomotion”. Further, the “axon sparing and myelination” value with spinal cord contusion (combined with Schwann cell grafts) is “promoted significant supraspinal and proprioceptive axon sparing and myelination”. In addition, the “cAMP levels after spinal cord contusion” value with spinal cord contusion (rolipram alone) is “prevented the decrease of cAMP levels”.
Turning to `COc1ccc(C(CC(N)=O)N2Cc3ccccc3C2=O)cc1OC` (stereo not shown) [3-(3,4-dimethoxy-phenyl)-3-(1-oxo-1,3-dihydro-isoindol-2-yl)-propionamide], the IC50 in data set [1] is 16 µM; in the data set on PDE4 it was 15 µM; in data set [2] it was 21 µM. Also, the “cardiovascular and respiratory changes” value in data set [3] is listed as “minimal at all doses”.
